From patent US12679843B2, “Pyrrolopyrimidine amines as complement inhibitors” (BioCryst Pharmaceuticals, Inc., priority 2020, dated 2026) come the findings set out here.

SMILES strings stand for the structures.

As usually defined, the IC50 is the concentration needed to halve the response being measured.

For the experiment, the target named is Factor D (Homo sapiens, UniProt P00746). Kind of experiment: Factor D esterolytic assay (Z-Lys-SBzl thioester substrate, DTNB, 405 nm). It counts as biochemical. Conditions: substrate Z-Lys-SBzl 1.29 mM, 100 mM HEPES, 500 mM NaCl, pH 7.5, 10% DMSO, tested a minimum of three times. The essentials: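 Human Factor D hydrolysis of Z-Lys-SBzl (1.29 mM) monitored at 405 nm via DTNB thiol detection for 600 s, 690 nm background subtracted. Buffer 100 mM HEPES, 500 mM NaCl, pH 7.5, 10% DMSO; substrate added immediately or after room-temperature preincubation. IC50 from percent inhibition of rate, at least three tests.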
Sequence of Factor D (P00746 26-253): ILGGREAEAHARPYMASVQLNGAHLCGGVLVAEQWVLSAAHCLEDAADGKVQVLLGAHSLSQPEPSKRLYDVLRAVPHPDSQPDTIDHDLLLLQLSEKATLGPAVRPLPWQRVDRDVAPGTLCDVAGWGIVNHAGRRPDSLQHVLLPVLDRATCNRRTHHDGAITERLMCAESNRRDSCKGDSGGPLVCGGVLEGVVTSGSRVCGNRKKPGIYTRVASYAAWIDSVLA
Consider `COc1ccc2c(c1)c1c(N)ncnc1n2CC(=O)N1[C@H](C(=O)Nc2cccc(Br)n2)C[C@@]2(C)C[C@@H]12` [Compound 159a, (1R,3S,5R)-2-(2-(4-amino-6-methoxy-9H-pyrimido[4,5-b]indol-9-yl)acetyl)-N-(6-bromopyridin-2-yl)-5-methyl-2-azabicyclo[3.1.0]hexane-3-carboxamide], for which the 50% inhibitory concentration (IC50) was less than 0.1 µM.

Regarding `Nc1ncnc2c1c1cccc(F)c1n2CC(=O)N1[C@@H]2C[C@@H]2C[C@H]1C(=O)Nc1cccc(Br)n1` [Compound 51g, (1R,3S,5R)-2-(2-(4-amino-8-fluoro-9H-pyrimido[4,5-b]indol-9-yl)acetyl)-N-(6-bromopyridin-2-yl)-2-azabicyclo[3.1.0]hexane-3-carboxamide], the IC50 is less than 0.1 µM.

For `Nc1ncnc2c1c1ccc(C(=O)O)cc1n2CC(=O)N1[C@@H]2C[C@@H]2C[C@H]1C(=O)Nc1cccc(Br)n1` [Compound 43a, 4-amino-9-(2-((1R,3S,5R)-3-((6-bromopyridin-2-yl)carbamoyl)-2-azabicyclo[3.1.0]hexan-2-yl)-2-oxoethyl)-9H-pyrimido[4,5-b]indole-7-carboxylic acid], the IC50 was less than 0.1 µM.

Turning to `Nc1ncnc2c1c1cc(CO)ccc1n2CC(=O)N1[C@@H]2C[C@@H]2C[C@H]1C(=O)Nc1cccc(Br)n1` [Compound 195e, (1R,3S,5R)-2-(2-(4-amino-6-(hydroxymethyl)-9H-pyrimido[4,5-b]indol-9-yl)acetyl)-N-(6-bromopyridin-2-yl)-2-azabicyclo[3.1.0]hexane-3-carboxamide], the half-inhibitory concentration (IC50) was less than 0.1 µM.

For `Nc1ncnc2c1c1ncccc1n2CC(=O)N1[C@@H]2C[C@@H]2C[C@H]1C(=O)Nc1cccc(Br)n1` [Compound 31f, (1R,3S,5R)-2-(2-(4-amino-9H-pyrido[2′,3′:4,5]pyrrolo[2,3-d]pyrimidin-9-yl)acetyl)-N-(6-bromopyridin-2-yl)-2-azabicyclo[3.1.0]hexane-3-carboxamide], the half-maximal inhibitory concentration (IC50) is less than 0.1 µM.

In the case of `Cc1ccc(Br)nc1NC(=O)[C@@H]1C[C@@]2(C)C[C@H]2N1C(=O)Cc1ccc2c(N)ncnn12` [Compound 72a, (1R,3S,5R)-2-(2-(4-aminopyrrolo[2,1-f][1,2,4]triazin-7-yl)acetyl)-N-(6-bromo-3-methylpyridin-2-yl)-5-methyl-2-azabicyclo[3.1.0]hexane-3-carboxamide], the half-inhibitory concentration (IC50) lay in the range of 0.1 to 1 µM.

In the case of `Nc1ncnc2c1ncn2CC(=O)N1[C@@H]2C[C@@H]2C[C@H]1C(=O)Nc1cccc(Br)n1` [Compound 84a, (1R,3S,5R)-2-(2-(6-amino-9H-purin-9-yl)acetyl)-N-(6-bromopyridin-2-yl)-2-azabicyclo[3.1.0]hexane-3-carboxamide], the IC50 lay in the range of 0.1 to 1 µM.

For `COc1cc2c3c(N)ncnc3n(CC(=O)N3[C@@H]4C[C@@H]4C[C@H]3C(=O)Nc3cccc(Br)n3)c2cc1OC` [Compound 276g, (1R,3S,5R)-2-(2-(4-amino-6,7-dimethoxy-9H-pyrimido[4,5-b]indol-9-yl)acetyl)-N-(6-bromopyridin-2-yl)-2-azabicyclo[3.1.0]hexane-3-carboxamide], the 50% inhibitory concentration (IC50) is less than 0.1 µM.

Regarding `Nc1ncnc2c1c1ccc(O)cc1n2CC(=O)N1[C@@H]2C[C@@H]2C[C@H]1C(=O)Nc1cccc(Br)n1` [Compound 167a, (1R,3S,5R)-2-(2-(4-amino-7-hydroxy-9H-pyrimido[4,5-b]indol-9-yl)acetyl)-N-(6-bromopyridin-2-yl)-2-azabicyclo[3.1.0]hexane-3-carboxamide], the IC50 was less than 0.1 µM.

As to `Cc1cc(C(F)(F)F)cc2c3c(N)ncnc3n(CC(=O)N3[C@@H]4C[C@@H]4C[C@H]3C(=O)Nc3cncc(Cl)n3)c12` [Compound 326c, (1R,3S,5R)-2-(2-(4-amino-8-methyl-6-(trifluoromethyl)-9H-pyrimido[4,5-b]indol-9-yl)acetyl)-N-(6-chloropyrazin-2-yl)-2-azabicyclo[3.1.0]hexane-3-carboxamide], the concentration for half-maximal inhibition (IC50) was less than 0.1 µM.

With `Nc1ncnc2c1c1ccccc1n2CC(=O)N1[C@@H]2C[C@@H]2C[C@H]1C(=O)Nc1cccc(Br)n1` [Compound 4b, (1R,3S,5R)-2-(2-(4-amino-9H-pyrimido[4,5-b]indol-9-yl)acetyl)-N-(6-bromopyridin-2-yl)-2-azabicyclo[3.1.0]hexane-3-carboxamide], the IC50 was less than 0.1 µM.

For `COc1cccc2c3c(N)ncnc3n(CC(=O)N3[C@H](C(=O)Nc4cccc(Br)n4)C[C@@]4(C)C[C@@H]34)c12` [Compound 173a, (1R,3S,5R)-2-(2-(4-amino-8-methoxy-9H-pyrimido[4,5-b]indol-9-yl)acetyl)-N-(6-bromopyridin-2-yl)-5-methyl-2-azabicyclo[3.1.0]hexane-3-carboxamide], the half-inhibitory concentration (IC50) is less than 0.1 µM.

Consider `Cc1cc(C(F)(F)F)cc2c3c(N)ncnc3n(CC(=O)N3[C@H](C(=O)Nc4cccc(Cl)n4)C[C@@]4(C)C[C@@H]34)c12` [Compound 287a, (1R,3S,5R)-2-(2-(4-amino-8-methyl-6-(trifluoromethyl)-9H-pyrimido[4,5-b]indol-9-yl)acetyl)-N-(6-chloropyridin-2-yl)-5-methyl-2-azabicyclo[3.1.0]hexane-3-carboxamide], for which the 50% inhibitory concentration (IC50) is less than 0.1 µM.

For the compound `Cc1ccccc1-c1ccc2c(c1)c1c(N)ncnc1n2CC(=O)N1[C@@H]2C[C@@H]2C[C@H]1C(=O)Nc1cccc(Br)n1` [Compound 197c, (1R,3S,5R)-2-(2-(4-amino-6-(o-tolyl)-9H-pyrimido[4,5-b]indol-9-yl)acetyl)-N-(6-bromopyridin-2-yl)-2-azabicyclo[3.1.0]hexane-3-carboxamide], the concentration for half-maximal inhibition (IC50) is less than 0.1 µM.

Take `Nc1ncnc2c1c1cccc(Br)c1n2CC(=O)N1[C@@H]2C[C@@H]2C[C@H]1C(=O)Nc1cccc(Br)n1` [Compound 35f, (1R,3S,5R)-2-(2-(4-amino-8-bromo-9H-pyrimido[4,5-b]indol-9-yl)acetyl)-N-(6-bromopyridin-2-yl)-2-azabicyclo[3.1.0]hexane-3-carboxamide]: the concentration for half-maximal inhibition (IC50) was less than 0.1 µM.

Take `Nc1ncnc2c1c1cc(C(F)(F)F)ccc1n2CC(=O)N1CCS[C@H]1C(=O)Nc1cccc(Br)n1` [Compound 171b, (S)-3-(2-(4-amino-6-(trifluoromethyl)-9H-pyrimido[4,5-b]indol-9-yl)acetyl)-N-(6-bromopyridin-2-yl)thiazolidine-2-carboxamide]: the IC50 was less than 0.1 µM.

Regarding `Nc1ncnc2c1ncn2CC(=O)N1[C@@H]2C[C@@H]2C[C@H]1C(=O)NCc1ccccc1` [Compound 101b, (1R,3S,5R)-2-(2-(6-amino-9H-purin-9-yl)acetyl)-N-benzyl-2-azabicyclo[3.1.0]hexane-3-carboxamide], the concentration for half-maximal inhibition (IC50) lay within 0.1 to 1 µM.

With `C[C@H]1C[C@@H](C(=O)Nc2cccc(Br)n2)N(C(=O)Cn2c3ccc(C(F)(F)F)cc3c3c(N)ncnc32)C1` [Compound 208d, (2S,4S)-1-(2-(4-amino-6-(trifluoromethyl)-9H-pyrimido[4,5-b]indol-9-yl)acetyl)-N-(6-bromopyridin-2-yl)-4-methylpyrrolidine-2-carboxamide], the IC50 was less than 0.1 µM.

`Cc1ccc(Br)nc1NC(=O)[C@@H]1C[C@@]2(C)C[C@H]2N1C(=O)Cn1c2ccc(C(F)(F)F)cc2c2c(N)ncnc21` [Compound 11f, (1R,3S,5R)-2-(2-(4-amino-6-(trifluoromethyl)-9H-pyrimido[4,5-b]indol-9-yl)acetyl)-N-(6-bromo-3-methylpyridin-2-yl)-5-methyl-2-azabicyclo[3.1.0]hexane-3-carboxamide]: the concentration for half-maximal inhibition (IC50) was less than 0.1 µM.
